Measured values: EPA's ToxRefDB 2

How the values were obtained:
rat [1] = settings: Prenatal developmental toxicity study; wistar; Oral; Gavage/Intubation; dose end: 5 GD; group: maternal; reproductive / reproductive performance / implantations / implantations
dog [2] = settings: Subchronic oral toxicity in nonrodent, beagle, Feed, dose end: 90 day, group: systemic, systemic / in life observation / clinical signs / defecation (diarrhea) + systemic / in life observation / clinical signs / emesis + …
rat [3] = settings: Developmental neurotoxicity range-finding study; sprague dawley; Oral; Feed; dose end: 21 PND; group: cannot be grouped; systemic / in life observation / body weight / body weight + systemic / in life observation / body weight / body weight gain + systemic / in…
rat [4] = settings: Subchronic oral toxicity in rodents, Feed, dose end: 90 day, group: systemic
mouse = settings: Carcinogenicity; cd1; Oral; Feed; dose end: 104 week; group: systemic; systemic / in life observation / clinical signs / hyperactivity
dog [5] = settings: Chronic toxicity, beagle, Oral, Feed, dose end: 52 week, group: systemic
rat [6] = settings: Developmental neurotoxicity study; sprague dawley; Inhalation; Whole-Body; dose end: 365 PND; group: cannot be grouped; systemic / in life observation / body weight / body weight gain + systemic / in life observation / body weight / offspring (pup) weight
rat [7] = settings: Multigenerational reproductive toxicity study, sprague dawley, Oral, Feed, dose end: 2 generation
dog [8] = settings: Chronic toxicity, beagle, Oral, Feed, dose end: 106 week, group: systemic
rabbit = settings: Prenatal developmental toxicity study, new zealand white, Oral, Gavage/Intubation, dose end: 19 GD, group: maternal
rat [9] = settings: Combined chronic toxicity/carcinogenicity; sprague dawley; Oral; Feed; dose end: 104 week; group: systemic; systemic / in life observation / body weight / body weight gain + systemic / pathology microscopic / kidney / concretion + systemic / …
[10] = systemic / clinical chemistry / urea nitrogen / urea + systemic / clinical chemistry / alkaline phosphatase (alp/alk) / alkaline phosphatase…
[11] = systemic / in life observation / clinical signs / tremors + systemic / clinical chemistry / glucose / glucose + systemic / in life …
[12] = group: offspring, systemic / in life observation / body weight / offspring (pup) weight
[13] = group: parental, systemic / in life observation / body weight / body weight + systemic / in life observation / body weight / body weight gain + systemic / in…
[14] = systemic / pathology microscopic / bone marrow / atrophy + systemic / pathology microscopic / kidney / congestion + systemic / pathology …
[15] = reproductive / reproductive performance / resorptions / resorptions + systemic / in life observation / food consumption / food consumption

## Cc1ccc(-c2cc(C(F)(F)F)nn2-c2ccc(S(N)(=O)=O)cc2)cc1 [Celecoxib]
Rat [1]
  LEL: 80 mg/kg/day
  LOAEL: > 160 mg/kg/day
  NEL: 40 mg/kg/day
  NOAEL: ≥ 160 mg/kg/day

## CC1(C)C(C(=O)OC(C#N)c2cccc(Oc3ccccc3)c2)C1(C)C (stereo not drawn) [Fenpropathrin]
Dog [2]
  LEL: 6.25 mg/kg/day
  LOAEL: 6.25 mg/kg/day
  NEL: < 6.25 mg/kg/day
  NOAEL: < 6.25 mg/kg/day
Rat [3]
  LEL: 27 mg/kg/day
  LOAEL: 27 mg/kg/day
  NEL: 13 mg/kg/day
  NOAEL: 13 mg/kg/day
Rat [4]; systemic / clinical chemistry / alkaline phosphatase (alp/alk) / alkaline phosphatase (alp/alk) + systemic / hematology / blood clotting / …
  LOAEL: 30 mg/kg/day
Rat [4]; systemic / clinical chemistry / urea nitrogen / urea
  LEL: 5 mg/kg/day
Rat [4]; [10]
  NEL: 1.5 mg/kg/day
  NOAEL: 15 mg/kg/day
mouse
  LEL: 65.2 mg/kg/day
  LOAEL: > 65.2 mg/kg/day
  NEL: 16.2 mg/kg/day
  NOAEL: ≥ 65.2 mg/kg/day
Dog [5]; systemic / in life observation / clinical signs / tremors
  LOAEL: 6.25 mg/kg/day
Dog [5]; systemic / in life observation / clinical signs / tremors + systemic / clinical chemistry / glucose / glucose
  LEL: 6.25 mg/kg/day
Dog [5]; [11]
  NEL: 2.5 mg/kg/day
  NOAEL: 2.5 mg/kg/day

## FC(F)(F)C(Cl)Br (stereo not drawn) [Halothane]
Rat [6]
  LEL: 12.5 ppm
  LOAEL: > 12.5 ppm
  NEL: < 12.5 ppm
  NOAEL: ≥ 12.5 ppm

## CSc1nc(NC(C)C)nc(NC(C)C)n1 [Prometryn]
Rat [7]; [12]
  LEL: 47.8 mg/kg/day
  LOAEL: 47.8 mg/kg/day
  NEL: 0.6 mg/kg/day
  NOAEL: 0.6 mg/kg/day
Rat [7]; [13]
  LEL: 47.8 mg/kg/day
  LOAEL: 47.8 mg/kg/day
  NEL: 0.6 mg/kg/day
  NOAEL: 0.6 mg/kg/day
Dog [8]; [14]
  LOAEL: 37.5 mg/kg/day
  NEL: 0.375 mg/kg/day
  NOAEL: 3.75 mg/kg/day
Dog [8]; systemic / pathology microscopic / liver / cellular alteration + systemic / pathology microscopic / liver / depletion glycogen + systemic / …
  LEL: 3.75 mg/kg/day
rabbit; [15]
  LOAEL: 72 mg/kg/day
  NEL: 12 mg/kg/day
  NOAEL: 12 mg/kg/day
rabbit; reproductive / reproductive performance / resorptions / resorptions + systemic / in life observation / food consumption / food consumption…
  LEL: 72 mg/kg/day
Rat [9]
  LEL: 60.9 mg/kg/day
  LOAEL: 60.9 mg/kg/day
  NEL: 29.4 mg/kg/day
  NOAEL: 29.4 mg/kg/day
